Assay results as given in paper PMC8878317, “Chemogenomics identifies acetyl-coenzyme A synthetase as a target for malaria treatment and prevention” (Cell Chemical Biology, 2022).

Assays:
[1] = target: T1, HsAcAS WT (Homo sapiens, UniProt Q9NR19); assay: HsAcAS Rapid-Fire QQQ mass spectrometry assay; format: biochemical; details: for Km: read-out: Km (µM), HsWT
T1 construct: made in house; host or cells: Expi293 cells (pCDNA 3.1, transient transfection)
Protocol: The human form of acetyl-CoA synthetase was assayed in 100 mM HEPES (pH7.4), 100 mM NaCl, 250 mM KCl, 50 mM MgCl2, 1 mM DTT, 0.005% NP40, 400 μM ATP, 70 μM acetate, 40 μM CoA and 2 nM recombinant HsAcAS. Assay ready plates containing different concentrations of inhibitor were prepared using an Echo 550 acoustic dispenser (Labcyte Inc.), dispensing 150 nL of compound per well. Assays were conducted in a total volume of 15 μL for 30 min at room temperature before being quenched with the addition of 85 μL 1% formic acid containing 0.5 μg/mL n-Propionyl coenzyme A (Sigma P5397) as an internal standard. Reaction products were detected using a RapidFire 365 system (Agilent, Santa Clara, CA) coupled with a triple quadrupole mass spectrometer 6740 (Agilent).
The sipper was washed to minimize carryover with 0.1% TFA in deionized water followed by 0.1% TFA in acetonitrile/deionized water (95%/5%, v/v). The sipper was washed to minimize carryover with deionized water followed by acetonitrile. Aspiration time, load/wash time, elution time, and re-equilibration time were set to 600, 3000, 5000, and 500 ms, respectively, with a cycle time of approximately 10 s. The triple-quadrupole mass spectrometer with electrospray ion source was operated in positive multiple reaction monitoring (MRM) mode. The detailed setting for the mass spectrometer parameters was as follows: capillary voltage, 3000 V; gas temperature, 350°C; gas flow, 7 L/min; nebulizer, 40 psi; sheath gas temperature, 300°C′ sheath gas flow, 11 L/min; and nozzle voltage, 1500 V. The MRM transitions for acetyl-CoA as a reaction product were set as 810.1/303.1 & 810.1/428.1 (quantifier & qualifier with dwell time of 50 ms, 100V fragmentor, and collision energies of 30 & 28 eV respectively) and for n-propionyl-CoA as an internal standard as 824.2/317.2 & 824.2/428.0 (quantifier & qualifier with dwell time of 50 ms, 100V fragmentor, and collision energies of 32 & 26 eV respectively). The mass resolution window for both parental and daughter ions was set at as a unit (0.7 Da). Peak areas were integrated, and area ratios of acetyl-CoA to the internal standard (n-propionyl CoA) were used for quantitation. Data were converted to % inhibition relative to the uninhibited enzyme control and fitted to Equation 3.

[2] = target: T2, PfAcAS A597V (Plasmodium falciparum, UniProt C6KTB4, A597V); assay: EnzChek assay, recombinant PfAcAS A597V; format: biochemical, P. falciparum; details: substrate varied, other two saturating
T2 sequence (C6KTB4 1-997 A597V): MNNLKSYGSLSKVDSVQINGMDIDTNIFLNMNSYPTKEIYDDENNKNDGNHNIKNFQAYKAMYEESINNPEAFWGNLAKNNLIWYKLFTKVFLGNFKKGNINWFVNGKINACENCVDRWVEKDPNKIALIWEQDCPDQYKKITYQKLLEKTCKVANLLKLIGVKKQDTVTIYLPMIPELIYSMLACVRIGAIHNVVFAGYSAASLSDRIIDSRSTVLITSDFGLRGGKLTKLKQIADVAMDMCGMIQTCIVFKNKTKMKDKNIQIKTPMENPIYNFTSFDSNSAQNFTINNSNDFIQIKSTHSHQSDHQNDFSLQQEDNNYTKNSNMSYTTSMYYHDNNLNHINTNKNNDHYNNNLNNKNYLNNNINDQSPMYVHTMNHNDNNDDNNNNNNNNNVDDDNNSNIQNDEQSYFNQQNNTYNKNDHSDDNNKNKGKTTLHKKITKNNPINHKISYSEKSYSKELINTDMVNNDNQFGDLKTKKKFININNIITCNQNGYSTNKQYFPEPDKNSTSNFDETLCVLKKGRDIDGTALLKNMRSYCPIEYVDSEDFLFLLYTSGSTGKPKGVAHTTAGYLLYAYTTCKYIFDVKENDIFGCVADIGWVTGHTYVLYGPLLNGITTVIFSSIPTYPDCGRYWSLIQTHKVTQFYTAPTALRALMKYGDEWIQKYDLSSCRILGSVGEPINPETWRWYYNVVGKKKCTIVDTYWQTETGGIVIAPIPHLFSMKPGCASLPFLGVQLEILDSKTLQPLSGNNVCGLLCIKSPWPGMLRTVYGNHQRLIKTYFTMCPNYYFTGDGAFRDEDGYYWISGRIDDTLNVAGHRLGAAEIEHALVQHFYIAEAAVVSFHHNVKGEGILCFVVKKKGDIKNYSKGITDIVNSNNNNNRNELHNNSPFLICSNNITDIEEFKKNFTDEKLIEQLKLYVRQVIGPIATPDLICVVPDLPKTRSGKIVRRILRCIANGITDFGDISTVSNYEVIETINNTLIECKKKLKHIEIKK
Protocol: (§1) Steady-state kinetic measurements were conducted at room temperature using a PheraStar plate reader (BMG). The first step of the reaction of PfAcAS, which produces inorganic pyrophosphate (PPi) that is converted to two molecules of inorganic phosphate using a pyrophosphatase enzyme, was continuously monitored using the EnzChek Phosphate Assay Kit, which gives an absorbance readout at 360 nm (Figure 4A) ([Webb, 1992]). […] By adding CoA, the reaction rapidly proceeds to the second step resulting in further release of pyrophosphate, making the EnzChek assay a suitable option to continuously monitor the activity of PfAcAS. Typical kinetic assays were carried out in clear, flat-bottom, polystyrene, 384-well plates (Greiner) in an 80 μL reaction volume containing 100 mM HEPES (pH7.4), 100 mM NaCl, 250 mM KCl, 50 mM MgCl2, 1 mM DTT, 0.004% Tween 20, 0.5 U/mL pyrophosphatase, 0.1 mM MESG, 0.5 U/mL PNP, 2 mM ATP, 2 mM acetate, 0.5 mM CoA and 5 nM recombinant PfAcAS WT or 10 nM recombinant PfAcAS A597V or T648M. Assays were performed by adding 40 μL of a 2-times concentrated substrate mixture including MESG to all wells, and the reactions started by adding 40 μL of a 2-times concentrated reaction mixture containing all other components. The reactions were carried out for 2 to 4 hr with absorbance readings at 360 nm every two to four minutes. Reaction rates were extracted from the linear phase of activity, usually using 10 to 20 points between times of 30 and 100 min of the reactions. Using a phosphate standard curve obtained under the same buffer conditions used for the PfAcAS reactions (Figure S5A), the rates were then converted to velocity per second, conversion of one nanomolar of phosphate, per nanomolar of enzyme, per second. The substrates Km values were determined by varying the concentration of one of the substrates at saturating concentration of the other two substrates. Steady-state data were fitted using the nonlinear, least-squares, curve-fitting programs of Sigma-Plot for Windows, version 14.0. Individual saturation curves were fit to Equation 1(Equation 1) v=VS/K+S where V is the maximal velocity, S is the substrate concentration and K is the Michaelis constant for the substrate (Km). Individual saturation curves displaying substrate inhibition were fit to Equation 2(Equation 2) v=VS/K+S×(1+S/Ks) where Ks is the substrate inhibition constant.
(§2) To determine the steady-state inhibition parameters and patterns associated with both inhibitors, PfAcAS activity was studied in the presence of variable concentrations of one substrate, ATP, acetate or CoA, fixed saturating concentration of the other two substrates (acetate and CoA, ATP and CoA, or ATP and acetate) and several fixed concentrations of inhibitor. Assay ready plates containing different concentrations of inhibitor were prepared using an Echo 550 acoustic dispenser (Labcyte Inc.). The assays were carried out as described in the previous section. […] For better comparison between both inhibitors and proteins, the ymin was fixed to zero and the ymax to 100. Inhibition data showing linear, competitive patterns in double-reciprocal plots were fit to Equation 4(Equation 4) v=VS/K(1+I/Ki)+S where Ki is the dissociation constant for the enzyme-inhibitor complex. Inhibition data showing linear, mixed inhibition patterns in double-reciprocal plots were fit to Equation 5(Equation 5) v=VS/K(1+I/Kis)+S(1+I/Kii) where Kis is the dissociation constant for the free enzyme-inhibitor complex and Kii is the dissociation constant for the enzyme-substrate-inhibitor complex. Inhibition data showing linear, uncompetitive patterns in double-reciprocal plots were fit to Equation 6(Equation 6) v=VS/K+S(1+I/Ki)

[3] = target: PfAcAS WT (Plasmodium falciparum, UniProt C6KTB4); assay: EnzChek assay, recombinant PfAcAS WT (steady-state kinetics and IC50); format: biochemical, P. falciparum
Protocol: as §1, §2

[4] = target: T3, PfAcAS T648M (Plasmodium falciparum, UniProt C6KTB4, T648M); assay: EnzChek assay, recombinant PfAcAS T648M; format: biochemical, P. falciparum; details: substrate varied, other two saturating
T3 sequence (C6KTB4 1-997 T648M): T2 sequence (C6KTB4 1-997 A597V)
Protocol: as §1, §2

[5] = substrate varied, other two saturating

T1 sequence (Q9NR19 whole entry): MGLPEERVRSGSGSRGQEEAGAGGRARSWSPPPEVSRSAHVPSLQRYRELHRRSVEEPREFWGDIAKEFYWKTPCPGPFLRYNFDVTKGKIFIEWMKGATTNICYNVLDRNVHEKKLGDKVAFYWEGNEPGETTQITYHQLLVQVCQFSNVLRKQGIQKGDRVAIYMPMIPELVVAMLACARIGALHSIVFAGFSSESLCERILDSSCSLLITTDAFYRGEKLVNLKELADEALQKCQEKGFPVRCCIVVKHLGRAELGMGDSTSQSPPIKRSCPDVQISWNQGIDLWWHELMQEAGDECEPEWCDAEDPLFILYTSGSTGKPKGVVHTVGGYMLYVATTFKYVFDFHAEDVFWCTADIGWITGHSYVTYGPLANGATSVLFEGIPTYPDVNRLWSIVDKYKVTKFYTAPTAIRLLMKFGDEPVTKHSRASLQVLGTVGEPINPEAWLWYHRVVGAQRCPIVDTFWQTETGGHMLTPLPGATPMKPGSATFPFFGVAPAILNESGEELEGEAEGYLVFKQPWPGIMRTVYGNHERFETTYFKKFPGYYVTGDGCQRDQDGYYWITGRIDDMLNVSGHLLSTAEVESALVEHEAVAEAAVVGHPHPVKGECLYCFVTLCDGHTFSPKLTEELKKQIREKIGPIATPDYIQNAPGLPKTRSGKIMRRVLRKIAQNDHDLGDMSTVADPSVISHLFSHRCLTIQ

Row | Compound | Km [1] [µM] | Km [2] [µM] | Vmax (s-1), PfAcAS A597V [2] [s⁻¹] | Km [3, 5] [µM] | Km [4] [µM] | Vmax (s-1), PfAcAS WT [3, 5] [s⁻¹] | Vmax (s-1), PfAcAS T648M [4] [s⁻¹] | Ki (µM), substrate inhibition, HsWT ([1]; substrate inhibition constant) [µM] | Ki (µM), substrate inhibition, PfAcAS WT ([3]; substrate inhibition constant) [µM]
1 | CC(=O)O [acetate] | 61 ± 4 | 400 ± 12 | 0.54 ± 0.05 | 72 | 190 ± 8 |  |  |  | 
2 | Nc1ncnc2c1ncn2[C@@H]1O[C@H](COP(=O)(O)OP(=O)(O)OP(=O)(O)O)[C@@H](O)[C@H]1O [ATP] |  | 140 ± 5 | 0.54 ± 0.01 | 93 | 400 ± 17 | 2.4 ± 0.03 | 1.9 ± 0.03 |  | 
3 | CC(C)(COP(=O)(O)OP(=O)(O)OC[C@H]1O[C@@H](n2cnc3c(N)ncnc32)[C@H](O)[C@@H]1OP(=O)(O)O)[C@@H](O)C(=O)NCCC(=O)NCCS [CoA] | 36 ± 5 | 61 ± 6 | 0.84 ± 0.05 | 42 | 82 ± 6 |  |  | 1000 ± 190 | 2700 ± 310
